Read-outs that look alike come from different tables or passages of the source.
Tests used:
neurotoxicity (rotarod) = experiment: Neurotoxicity (rotarod); format: in vivo; conditions: mice, protective index
Experimental: The measurement of neurotoxicity of the test compounds was conducted by the method of Dunham and Miya [Dunham, N. W. and Miya, T. S. 1957. A note on a simple apparatus for detecting neurological deficit in rats and mice. J. Am. Pharm. Assoc. (Baltimore) 46: 208-209]. In the method, motor abilities of the test animals can be determined by observing whether the test animals can walk without falling from a rotator, thereby determining the value of neurotoxicity of each compound. […] They were pre-trained on the rotarod (Rotarod; Columbus instrument, rota-max, USA) at 6 rpm for 5 min 24 hr prior to the test. The peak time was determined by administration test material's random dose for 0.5, 1, 2, 4 hour. […] The ratio of TD50 to ED50(TD50/ED50) is called as a protective index, and useful as a parameter for comparison of pharmaceutical efficacy and neurotoxicity.

[1] = system: Lithium-pilocarpine induced status epilepticus; experiment: animal or person; format: in vivo, rat; conditions: for responders at 46 mg/kg: Rattus norvegicus, iv, read-out: Protection %; for Protection %: rat, in vivo
[2] = system: PTZ-induced clonic seizure; experiment: animal or person; format: in vivo, mice; conditions: Mus musculus, ip; for responders at 20.4 mg/kg: read-out: Protection %; for ED50: read-out: PTZ test ED50
[3] = system: maximal electroshock seizure; experiment: animal or person; format: in vivo, mice
[4] = system: Lithium-pilocarpine induced status epilepticus; experiment: animal or person; format: in vivo; conditions: Rattus norvegicus, ip, 1.5 h, read-out: Protection %
6 Hz-induced seizure = experiment: animal or person; format: in vivo, mice; conditions: ip
[5] = system: lamotrigene-resistant amygdala kindled rat; experiment: animal or person; format: in vivo; conditions: ip
[6] = system: benzodiazepine-resistant status epilepticus; experiment: animal or person; format: in vivo; conditions: Rattus norvegicus, ip, 10 min
[7] = system: PTZ-induced clonic seizure; experiment: animal or person; format: in vivo, rats; conditions: Rattus norvegicus, ip

Q: `CC(OC(N)=O)C(O)c1ccccc1Cl` (racemic) [Compound 3, 1-(2-chlorophenyl)-1-hydroxypropyl-2-carbamate] was tested. Which “PI(TD50/ED50 in MES)” value (neurotoxicity (rotarod)) did it give?
A: 12.0

Q: How did the responders at 46 mg/kg [1] turn out when `CCC(OC(N)=O)C(O)c1ccccc1Cl` (racemic) [Compound 8, 1-(2-chlorophenyl)-1-hydroxybutyl-2-carbamate] was run?
A: 50%

Q: And the responders at 20.4 mg/kg [2]?
A: 50%

Q: How did the responders at 20.4 mg/kg [2] turn out when `CCCCC(OC(N)=O)C(O)c1ccccc1Cl` (racemic) [Compound 14, 1-(2-chlorophenyl)-1-hydroxyhexyl-2-carbamate] was run?
A: 16.7%

Q: How did the responders at 20.4 mg/kg [2] turn out when `CNC(=O)O[C@H](C)[C@H](O)c1ccccc1Cl` (racemic) [Compound 29, 1-(2-chlorophenyl)-1-hydroxypropyl-2-N-methylcarbamate] was run?
A: 33.3%

Q: What does the source list for `CCCNC(=O)O[C@H](C)[C@H](O)c1ccccc1Cl` (racemic) [Compound 30, 1-(2-chlorophenyl)-1-hydroxypropyl-2-N-propylcarbamate]?
A: Protection % ([3]; mouse, in vivo): 200 ^a(25%); responders at 20.4 mg/kg [2]: 33.3%

Q: Which responders at 46 mg/kg [1] does the source give for `CC(C)NC(=O)O[C@H](C)[C@H](O)c1ccccc1Cl` (racemic) [Compound 31, 1-(2-chlorophenyl)-1-hydroxypropyl-2-N-isopropylcarbamate] here?
A: 100%

Q: What about the responders at 20.4 mg/kg [2] of the same compound?
A: 83.3%

Q: Which results are given for `C[C@@H](OC(=O)NC1CC1)[C@H](O)c1ccccc1Cl` (racemic) [Compound 32, 1-(2-chlorophenyl)-1-hydroxypropyl-2-N-cyclopropylcarbamate]?
A: responders at 200 mg/kg ([3]; Mus musculus, po, read-out: Protection %): 100%; responders at 46 mg/kg [1]: 100%; responders at 20.4 mg/kg [2]: 16.7%

Q: What does the source list for `C[C@H](OC(=O)NC1CC1)[C@@H](O)c1ccccc1Cl` (single isomer, unassigned) [Compound 25]?
A: Protection % [1]: ^a46 (100%); responders at 60 mg/kg [4]: 100%; responders at 20.4 mg/kg [2]: 66.7%

Q: With `C[C@H](OC(N)=O)[C@@H](O)c1ccccc1Cl` [Compound 1, 1-(2-chlorophenyl)-(S)-1-hydroxypropyl-(S)-2-carbamate] as the compound, how does the “PI(TD50/ED50 in MES)” value (neurotoxicity (rotarod)) read?
A: 16.8

Q: What about the ED50 (6 Hz-induced seizure; Mus musculus) of the same compound?
A: 14.6 mg/kg

Q: And the ED50 (6 Hz-induced seizure; mouse, in vivo)?
A: 13.66 mg/kg

Q: And the ED50 ([5]; Rattus norvegicus)?
A: 17 mg/kg

Q: What about the “Seizure Score” value ([5]; rat, in vivo) of the same compound?
A: 2.0 ± 0.7(Control: 5.0 ± 0.0)

Q: And the ED50 [6]?
A: 96.9 mg/kg

Q: What does the source list for `C[C@@H](OC(N)=O)[C@H](O)c1ccccc1Cl` [Compound 2, 1-(2-chlorophenyl)-(R)-1-hydroxypropyl-(R)-2-carbamate]?
A: responders at 46 mg/kg [1]: 50%; PI(TD50/ED50 in MES) (neurotoxicity (rotarod)): 7.3; ED50 ([7]; read-out: PTZ test ED50): 51.9 mg/kg

Q: Which results are given for `C[C@@H](OC(N)=O)[C@@H](O)c1ccccc1Cl` [Compound 4, 1-(2-chlorophenyl)-(S)-1-hydroxypropyl-(R)-2-carbamate]?
A: responders at 46 mg/kg [1]: 100%; responders at 30 mg/kg ([7]; read-out: Protection %): 50%; ED50 [2]: 26.7 mg/kg

Q: Which “PI(TD50/ED50 in MES)” value (neurotoxicity (rotarod)) does the source give for `C[C@H](OC(N)=O)[C@H](O)c1ccccc1Cl` [Compound 5, 1-(2-chlorophenyl)-(R)-1-hydroxypropyl-(S)-2-carbamate] here?
A: 3.3

Q: Which responders at 46 mg/kg [1] does the source give for `CC[C@H](OC(N)=O)[C@@H](O)c1ccccc1Cl` [Compound 6, 1-(2-chlorophenyl)-(S)-1-hydroxybutyl-(S)-2-carbamate] here?
A: 100%

Q: What about the responders at 30 mg/kg ([7]; read-out: Protection %) of the same compound?
A: 50%

Q: And the ED50 [2]?
A: 17.9 mg/kg

Q: For `CC(C)[C@H](OC(N)=O)[C@@H](O)c1ccccc1Cl` [Compound 9, 1-(2-chlorophenyl)-(8)-1-hydroxy-3-methyl-butyl-(8)-2-carbamate], which responders at 20.4 mg/kg [2] is on record?
A: 33.3%

Q: For `CCCC[C@H](OC(N)=O)[C@@H](O)c1ccccc1Cl` [Compound 12, 1-(2-chlorophenyl)-(S)-1-hydroxyhexyl-(S)-2-carbamate], which responders at 20.4 mg/kg [2] is on record?
A: 33.3%

Q: How did the responders at 20.4 mg/kg [2] turn out when `CCCC[C@@H](OC(N)=O)[C@H](O)c1ccccc1Cl` [Compound 13, 1-(2-chlorophenyl)-(R)-1-hydroxyhexyl-(R)-2-carbamate] was run?
A: 50%

Q: For `CNC(=O)O[C@@H](C)[C@@H](O)c1ccccc1Cl` [Compound 15, 1-(2-chlorophenyl)-(S)-1-hydroxypropyl-(S)-2-N-methylcarbamate], which responders at 46 mg/kg [1] is on record?
A: 100%

Q: What about the responders at 25 mg/kg ([7]; read-out: Protection %) of the same compound?
A: 33.3%

Q: `CCCNC(=O)O[C@@H](C)[C@@H](O)c1ccccc1Cl` [Compound 16, 1-(2-chlorophenyl)-(S)-1-hydroxypropyl-(S)-2-N-propylcarbamate] was tested. Which responders at 46 mg/kg [1] did it give?
A: 100%

Q: What about the responders at 30 mg/kg ([7]; read-out: Protection %) of the same compound?
A: 33.3%

Q: With `C[C@H](OC(=O)NC1CC1)[C@@H](O)c1ccccc1Cl` [Compound 18, 1-(2-chlorophenyl)-(S)-1-hydroxypropyl-(R)-2-N-cyclopropylcarbamate] as the compound, how does the Protection % [1] read?
A: ^a46 (66.7%)

Q: And the responders at 30 mg/kg ([7]; read-out: Protection %)?
A: 16.7%

Q: Which responders at 20.4 mg/kg [2] does the source give for `CCCNC(=O)O[C@@H](C)[C@@H](O)c1ccccc1Cl` [Compound 23, 1-(2-chlorophenyl)-(R)-1-hydroxypropyl-(R)-2-N-propylcarbamate] here?
A: 50%

Q: Which responders at 20.4 mg/kg [2] does the source give for `C[C@H](OC(N)=O)[C@@H](O)c1ccc(Cl)cc1Cl` [Compound 36, 1-(2,4-dichlorophenyl)-(S)-1-hydroxypropyl-(S)-2-carbamate] here?
A: 33.3%

Q: `C[C@H](OC(N)=O)[C@@H](O)c1c(Cl)cccc1Cl` [Compound 37, 1-(2,6-dichlorophenyl)-(S)-1-hydroxypropyl-(S)-2-carbamate] was tested. Which responders at 46 mg/kg [1] did it give?
A: 100%

Q: What about the “PI(TD50/ED50 in MES)” value (neurotoxicity (rotarod)) of the same compound?
A: 5.1

Q: And the responders at 30 mg/kg ([7]; read-out: Protection %)?
A: 50%

Q: And the ED50 [2]?
A: 25.7 mg/kg

Q: Which responders at 46 mg/kg [1] does the source give for `C[C@H](OC(N)=O)[C@@H](O)c1cccc(Cl)c1Cl` [Compound 38, 1-(2,3-dichlorophenyl)-(S)-1-hydroxypropyl-(S)-2-carbamate] here?
A: 50%

Q: And the responders at 20.4 mg/kg [2]?
A: 50%

Q: For `CC[C@H](OC(N)=O)[C@@H](O)c1ccc(Cl)cc1Cl` [Compound 39, 1-(2,4-dichlorophenyl)-(S)-1-hydroxybutyl-(S)-2-carbamate], which ED50 [2] is on record?
A: 24.3 mg/kg

Q: Which results are given for `CC[C@H](OC(N)=O)[C@@H](O)c1c(Cl)cccc1Cl` [Compound 40, 1-(2,6-dichlorophenyl)-(S)-1-hydroxybutyl-(S)-2-carbamate]?
A: responders at 46 mg/kg [1]: 100%; responders at 20.4 mg/kg [2]: 33.3%

Q: With `CC(C)[C@H](OC(N)=O)[C@@H](O)c1c(Cl)cccc1Cl` [Compound 42, 1-(2,6-dichlorophenyl)-(S)-1-hydroxy-3-methyl-butyl-(S)-2-carbamate] as the compound, how does the responders at 20.4 mg/kg [2] read?
A: 50%

Q: With `CCCC[C@H](OC(N)=O)[C@@H](O)c1ccc(Cl)cc1Cl` [Compound 43, 1-(2,4-dichlorophenyl)-(S)-1-hydroxyhexyl-(S)-2-carbamate] as the compound, how does the responders at 25 mg/kg ([7]; read-out: Protection %) read?
A: 33.3%

Q: `CCCC[C@H](OC(N)=O)[C@@H](O)c1c(Cl)cccc1Cl` [Compound 44, 1-(2,6-dichlorophenyl)-(S)-1-hydroxyhexyl-(S)-2-carbamate] was tested. Which responders at 20.4 mg/kg [2] did it give?
A: 33.3%

Q: Which responders at 46 mg/kg [1] does the source give for `C[C@@H](OC(N)=O)[C@H](O)c1ccc(Cl)cc1Cl` [Compound 45, 1-(2,4-dichlorophenyl)-(R)-1-hydroxypropyl-(R)-2-carbamate] here?
A: 33.3%

Q: What about the responders at 50 mg/kg ([7]; read-out: Protection %) of the same compound?
A: 16.7%

Q: And the responders at 20.4 mg/kg [2]?
A: 16.7%

Q: `C[C@@H](OC(N)=O)[C@H](O)c1c(Cl)cccc1Cl` [Compound 46, 1-(2,6-dichlorophenyl)-(R)-1-hydroxypropyl-(R)-2-carbamate] was tested. Which responders at 46 mg/kg [1] did it give?
A: 50%

Q: And the responders at 20.4 mg/kg [2]?
A: 50%

Q: Which results are given for `C[C@H](OC(N)=O)[C@@H](O)c1ccccc1F` [Compound 63, 1-(2-fluorophenyl)-(S)-1-hydroxypropyl-(S)-2-carbamate]?
A: responders at 46 mg/kg [1]: 50%; responders at 20.4 mg/kg [2]: 50%

Q: How did the responders at 46 mg/kg [1] turn out when `C[C@H](OC(N)=O)[C@@H](O)c1ccccc1I` [Compound 65, 1-(2-iodophenyl)-(S)-1-hydroxypropyl-(S)-2-carbamate] was run?
A: 100%

Q: And the responders at 20.4 mg/kg [2]?
A: 100%

Q: With `CC[C@H](OC(N)=O)[C@@H](O)c1ccccc1I` [Compound 67, 1-(2-iodophenyl)-(S)-1-hydroxybutyl-(S)-2-carbamate] as the compound, how does the responders at 46 mg/kg [1] read?
A: 100%

Q: And the responders at 30 mg/kg ([7]; read-out: Protection %)?
A: 33.3%

Q: What about the ED50 [2] of the same compound?
A: 23.1 mg/kg

Reference: patent US9682059B2 (priority 2013, dated 2017)
